Assay results published in patent US9102591B2, “Benzamides” (H. Lundbeck A/S, priority 2012, dated 2015).

These molecules were tested against P2X7 receptor (Homo sapiens (Human), UniProt Q99572) (assay: P2X7 FLIPR assay (BzATP-stimulated calcium fluorescence, antagonist IC50)).
Chain of P2X7 receptor (Q99572 whole entry): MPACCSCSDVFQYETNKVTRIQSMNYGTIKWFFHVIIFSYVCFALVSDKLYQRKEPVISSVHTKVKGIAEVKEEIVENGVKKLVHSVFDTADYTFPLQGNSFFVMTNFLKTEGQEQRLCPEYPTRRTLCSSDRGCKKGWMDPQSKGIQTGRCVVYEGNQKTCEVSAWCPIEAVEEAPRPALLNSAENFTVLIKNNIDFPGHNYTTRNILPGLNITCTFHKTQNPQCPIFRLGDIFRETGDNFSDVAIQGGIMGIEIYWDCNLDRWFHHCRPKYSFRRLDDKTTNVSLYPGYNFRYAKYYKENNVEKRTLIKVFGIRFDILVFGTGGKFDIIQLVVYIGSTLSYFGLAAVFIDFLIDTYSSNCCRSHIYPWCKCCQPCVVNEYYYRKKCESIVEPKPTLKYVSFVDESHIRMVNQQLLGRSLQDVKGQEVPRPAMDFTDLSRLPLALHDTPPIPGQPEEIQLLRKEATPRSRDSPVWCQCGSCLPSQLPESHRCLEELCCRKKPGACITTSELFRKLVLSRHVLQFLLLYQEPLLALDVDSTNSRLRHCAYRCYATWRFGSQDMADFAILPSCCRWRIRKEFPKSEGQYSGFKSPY
Assay type: cell-based
Procedure, shortened: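 Cells expressing P2X7 receptor (human, rat or mouse), plated 24 hours earlier in low-serum medium, loaded with Fluo-4 NW dye (30 min 37° C, 30 min room temperature).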
`O=C(NCC(CC1(C(F)(F)F)CC1)c1cnc(C(F)(F)F)nc1)c1cccc(Cl)c1Cl` (single isomer, unassigned; (+)) [(+)2,3-dichloro-N-[3-[1-(trifluoromethyl)cyclopropyl]-2-[2-(] [(+)2,3-dichloro-N-[3-[1-(trifluoromethyl)cyclopropyl]-2-[2-(trifluoromethyl)pyrimidin-5-yl]propyl]benzamide] showed an IC50 of 1.6 nM.
Work on `Cc1ncc(C(CNC(=O)c2ccccc2Cl)C2CCC(F)(F)CC2)cn1` (centres unmarked) [2-chloro-N-[2-(4,4-difluorocyclohexyl)-2-(2-methylpyrimidin-5-yl)ethyl]benzamide] yielded an IC50 of 90 nM.
In the case of `O=C(NCC(CC1CC1)c1ccc(C(F)(F)F)nc1)c1cccc(Cl)c1Cl` (single isomer, unassigned; (+)) [(+)2,3-dichloro-N-[3-cyclopropyl-2-[6-(trifluoromethyl)-3-py] [(+)2,3-dichloro-N-[3-cyclopropyl-2-[6-(trifluoromethyl)-3-pyridyl]propyl]benzamide], the IC50 is reported as 2.6 nM.
`O=C(NCC(c1ccccc1)c1ccc(C(F)(F)F)nc1)c1c(Cl)cccc1Cl` (single isomer, unassigned; (+)) [(+)2,6-dichloro-N-[2-phenyl-2-[6-(trifluoromethyl)-3-pyridyl] [(+)2,6-dichloro-N-[2-phenyl-2-[6-(trifluoromethyl)-3-pyridyl]ethyl]benzamide] showed an IC50 of 12 nM.
`Cc1ncc(C(CNC(=O)c2cccc(Cl)c2Cl)C2CCC(F)(F)CC2)cn1` (centres unmarked) [2,3-dichloro-N-[2-(4,4-difluorocyclohexyl)-2-(2-methylpyrimidin-5-yl)ethyl]benzamide] showed an IC50 of 6.2 nM.
For `Cc1ncc(C(CNC(=O)c2c(Cl)cccc2Cl)CC2CC2)cn1` (single isomer, unassigned; (-)) [(−)2,6-dichloro-N-[3-cyclopropyl-2-(2-methylpyrimidin-5-yl)p] [(−)2,6-dichloro-N-[3-cyclopropyl-2-(2-methylpyrimidin-5-yl)propyl]benzamide], the IC50 was 9.9 nM.
`Cc1ccccc1C(=O)NCC1(c2ccccc2)CCN(C)CC1` [2-Methyl-N-(1-methyl-4-phenyl-piperidin-4-ylmethyl)-benzamide] was tested, and the IC50 was 64 nM.
With `Cc1ncc(C(CNC(=O)c2ccccc2Cl)CC2CC2)cn1` (centres unmarked) [2-chloro-N-[3-cyclopropyl-2-(2-methylpyrimidin-5-yl)propyl]benzamide] the IC50 was 1200 nM.
Molecule `O=C(NCC(CC1CC1)c1ccc(C(F)(F)F)nc1)c1cccc(Cl)c1Cl` (single isomer, unassigned; (-)) [(−)2,3-dichloro-N-[3-cyclopropyl-2-[6-(trifluoromethyl)-3-py] [(−)2,3-dichloro-N-[3-cyclopropyl-2-[6-(trifluoromethyl)-3-pyridyl]propyl]benzamide] has an IC50 of 0.31 nM.
`COc1ccccc1C(=O)NCC1(c2ccc(Cl)cc2)CCOCC1` [N-[4-(4-Chloro-phenyl)-tetrahydro-pyran-4-ylmethyl]-2-methoxy-benzamide] showed an IC50 of 620 nM.
`O=C(NCC(CC1CC1)c1ccc(C(F)(F)F)nc1)c1cccc(F)c1Cl` (stereo not drawn) [2(−)-chloro-N-[3-cyclopropyl-2-[6-(trifluoromethyl)-3-pyridy] [2(−)-chloro-N-[3-cyclopropyl-2-[6-(trifluoromethyl)-3-pyridyl]propyl]-3-fluoro-benzamide] gave an IC50 of 2.9 nM.
`O=C(NCC1(c2ccc(F)nc2)CCC(F)(F)CC1)c1ccccc1F` [N-[4,4-Difluoro-1-(6-fluoro-pyridin-3-yl)-cyclohexylmethyl]-] [N-[4,4-Difluoro-1-(6-fluoro-pyridin-3-yl)-cyclohexylmethyl]-2-fluoro-benzamide] showed an IC50 of 14 nM.
Molecule `O=C(NCC(CC1CC1)c1cnc(C(F)(F)F)nc1)c1c(Cl)cccc1Cl` (single isomer, unassigned; (-)) [(−)2,6-dichloro-N-[3-cyclopropyl-2-[2-(trifluoromethyl)pyrim] [(−)2,6-dichloro-N-[3-cyclopropyl-2-[2-(trifluoromethyl)pyrimidin-5-yl]propyl]benzamide] has an IC50 of 0.82 nM.
Work on `O=C(NCC1(c2ccc(Cl)cc2)CCOCC1)c1ccccc1Cl` [2-Chloro-N-[4-(4-chloro-phenyl)-tetrahydro-pyran-4-ylmethyl]-benzamide] yielded an IC50 of 800 nM.
